Experimental data as given in US20130040935A1, “CYCLIC KETO-ENOLS FOR THERAPY” (BAYER INTELLECTUAL PROPERTY GMBH, priority 2010, published 2013).
Like-named read-outs stand apart in the source and are kept apart here.

Experiments:
[1] = target: human ACC2 (acetyl-coenzyme A carboxylase 2) (Homo sapiens, UniProt O00763); experiment: Human ACC2 enzyme assay, Assay B2 (ADP-Glo);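 note: human ACC2 activity read as ADP product, detected by luciferase glow luminescence after residual ATP removal, enzyme near 2 ng/µl in linear range, detection steps at 22 °C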
Chain of human ACC2 (acetyl-coenzyme A carboxylase 2) (O00763 27-2458 limits assumed): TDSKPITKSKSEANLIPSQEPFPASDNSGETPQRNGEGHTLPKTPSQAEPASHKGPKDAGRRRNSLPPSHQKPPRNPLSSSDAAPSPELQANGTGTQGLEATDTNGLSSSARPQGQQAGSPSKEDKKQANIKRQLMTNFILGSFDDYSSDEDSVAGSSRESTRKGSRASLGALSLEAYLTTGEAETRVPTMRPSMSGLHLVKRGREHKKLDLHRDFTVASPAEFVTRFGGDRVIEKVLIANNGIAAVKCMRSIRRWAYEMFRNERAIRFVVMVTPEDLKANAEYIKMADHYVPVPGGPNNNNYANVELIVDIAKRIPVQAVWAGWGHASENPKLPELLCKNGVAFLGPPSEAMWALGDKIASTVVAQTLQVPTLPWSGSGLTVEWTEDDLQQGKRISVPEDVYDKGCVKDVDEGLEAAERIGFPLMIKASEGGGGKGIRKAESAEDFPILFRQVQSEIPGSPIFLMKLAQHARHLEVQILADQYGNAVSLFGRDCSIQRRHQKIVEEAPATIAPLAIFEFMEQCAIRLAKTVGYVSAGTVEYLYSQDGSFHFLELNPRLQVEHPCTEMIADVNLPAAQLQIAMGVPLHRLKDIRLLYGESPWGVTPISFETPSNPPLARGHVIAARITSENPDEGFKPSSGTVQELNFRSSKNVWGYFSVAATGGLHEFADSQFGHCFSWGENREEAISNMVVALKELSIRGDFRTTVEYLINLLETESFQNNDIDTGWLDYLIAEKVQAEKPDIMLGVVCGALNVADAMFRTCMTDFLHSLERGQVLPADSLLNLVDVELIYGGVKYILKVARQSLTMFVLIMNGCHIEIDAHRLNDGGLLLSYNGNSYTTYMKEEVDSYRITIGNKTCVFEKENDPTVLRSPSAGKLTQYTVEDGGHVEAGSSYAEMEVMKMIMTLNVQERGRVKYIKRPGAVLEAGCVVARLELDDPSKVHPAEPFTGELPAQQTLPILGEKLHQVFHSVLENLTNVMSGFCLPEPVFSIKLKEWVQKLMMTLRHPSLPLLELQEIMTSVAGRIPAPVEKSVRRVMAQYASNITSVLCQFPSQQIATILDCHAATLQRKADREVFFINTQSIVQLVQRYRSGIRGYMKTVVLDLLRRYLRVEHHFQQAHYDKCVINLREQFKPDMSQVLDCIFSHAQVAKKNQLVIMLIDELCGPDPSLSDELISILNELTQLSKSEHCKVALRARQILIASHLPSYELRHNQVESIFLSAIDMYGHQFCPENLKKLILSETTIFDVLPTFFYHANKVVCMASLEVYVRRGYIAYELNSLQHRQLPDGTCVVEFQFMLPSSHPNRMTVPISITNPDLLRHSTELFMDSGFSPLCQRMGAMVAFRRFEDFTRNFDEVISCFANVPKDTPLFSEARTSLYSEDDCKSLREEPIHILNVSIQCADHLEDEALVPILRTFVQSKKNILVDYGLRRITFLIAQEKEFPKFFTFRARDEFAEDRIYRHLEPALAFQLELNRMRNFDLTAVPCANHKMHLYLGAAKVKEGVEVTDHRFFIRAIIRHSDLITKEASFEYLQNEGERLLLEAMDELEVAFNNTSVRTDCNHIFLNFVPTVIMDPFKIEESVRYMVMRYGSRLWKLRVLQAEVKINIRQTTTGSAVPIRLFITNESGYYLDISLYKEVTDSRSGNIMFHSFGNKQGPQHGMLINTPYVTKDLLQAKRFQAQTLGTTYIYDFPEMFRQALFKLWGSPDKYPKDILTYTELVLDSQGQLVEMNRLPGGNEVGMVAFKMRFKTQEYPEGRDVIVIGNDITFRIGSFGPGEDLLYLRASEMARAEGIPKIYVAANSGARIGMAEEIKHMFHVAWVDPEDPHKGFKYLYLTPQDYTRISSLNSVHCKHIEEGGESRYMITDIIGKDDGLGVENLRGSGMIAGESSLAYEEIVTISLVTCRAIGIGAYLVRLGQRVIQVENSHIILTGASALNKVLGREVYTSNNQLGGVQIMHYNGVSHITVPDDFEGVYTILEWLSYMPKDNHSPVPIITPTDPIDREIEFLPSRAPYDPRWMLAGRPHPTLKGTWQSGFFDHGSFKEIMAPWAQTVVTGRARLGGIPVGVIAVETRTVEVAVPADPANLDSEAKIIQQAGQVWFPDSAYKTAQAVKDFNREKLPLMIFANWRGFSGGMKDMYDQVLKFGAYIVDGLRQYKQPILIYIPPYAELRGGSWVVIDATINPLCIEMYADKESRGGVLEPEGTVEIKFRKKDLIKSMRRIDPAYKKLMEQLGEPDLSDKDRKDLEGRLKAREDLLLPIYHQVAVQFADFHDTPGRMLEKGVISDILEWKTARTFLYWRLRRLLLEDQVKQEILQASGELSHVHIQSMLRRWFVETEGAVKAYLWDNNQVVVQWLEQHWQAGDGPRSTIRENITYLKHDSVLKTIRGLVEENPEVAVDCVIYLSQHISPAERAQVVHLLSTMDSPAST
Protocol: The hACC2-inhibitory action of the substances of the present invention was measured in the hACC2 assay described in the paragraphs below.
(§1) Essentially, the enzyme activity is measured by quantifying the adenosine diphosphate (ADP) formed as a byproduct of the enzyme reactions using the ADP-Glo™ detection system from Promega. In this test, initially the adenosine triphosphate (ATP) not consumed in the enzyme reaction is converted quantitatively with an adenylate cyclase (“ADP-GLO reagent”) into cAMP, the adenylate cyclase is then stopped and (“kinase detection reagent”) the ADP formed is subsequently converted into ATP, which is converted in a luciferase-based reaction into a glow luminescence signal.
The concentration of the hACC2 was adapted to the respective activity of the enzyme and adjusted such that the assay operated in the linear range. Typical concentrations were in the range of 2 ng/μl. […] The amount of light emitted was taken as a measure for the amount of ADP formed and thus for the enzyme activity of the hACC2.

[2] = test system: MCF7; experiment: Cell proliferation assay (CellTiter-Glo, 96 h), MCF7; type: cell-based; conditions: Homo sapiens
Protocol: In accordance with the invention, the substances were tested in cell-based assays for the ability of the substances of inhibiting tumour cell proliferation after a 96-hour incubation with the substance. Cell viability was tested using the CellTiter-Glo® luminescent cell viability assay (Promega). The cells were sown at a density of 2000-5000 cells/well (depending on the cell line) in 100 μl growth medium on 96-well microtitre plates. For each cell line examined, cells were sown on a separate plate to determine the luminescence at t=0 hours and t=96 hours. After overnight incubation at 37° C., the luminescence values for the t=0 samples were determined. The dose plates for the t=96 hours points in time were treated with substances diluted with growth medium. The cells were then incubated at 37° C. for 96 hours, and the luminescence values for the t=96 hours sample were then determined. For data analysis, the t=0 values were subtracted from the t=96 hour values for treated and untreated samples. The differences in luminescence in percent between substance-treated samples and control values were used to determine the growth inhibition in percent.
The substances were tested in the following cell lines which represent the stated indications in an exemplary manner: […]

[3] = target: T1, human ACC1 (acetyl-coenzyme A carboxylase alpha transcript variant 1) (Homo sapiens, UniProt Q13085); experiment: Human ACC1 enzyme assay, Assay B1 (ADP-Glo); type: biochemical
T1 construct: FLAG (C); made in house; host or cells: baculovirus-infected insect cells (Hi5)
Protocol: as §1
The concentration of the hACC1 was adapted to the respective activity of the enzyme and adjusted such that the assay operated in the linear range. […] The amount of light emitted was taken as a measure for the amount of ADP formed and thus for the enzyme activity of the hACC1.

[4] = MCF7, Table 7, 96-hour incubation
[5] = Assay B1, ADP-Glo, read-out: ACC 1 (=B1) IC50
[6] = Assay B1, read-out: ACC 1 (=B1) IC50

In the case of `COC1CCC2(C1)NC(=O)C(c1c(C)ccc(-c3ccc(Cl)cc3)c1C)=C2O` (stereo not drawn) [1-48, 3-(4′-chloro-2,4-dimethylbiphenyl-3-yl)-4-hydroxy-7-methoxy-1-azaspiro[4.4]non-3-en-2-one], the IC50 [1] is reported as 10.4 µM, the IC50 [2, 4] is reported as 852 nM and the IC50 [3] is reported as 1560 nM.

`Cc1ccc(-c2ccc(Cl)cc2)c(C)c1C1=C(O)C2(CCCCC2)OC1=O` [2-4, 3-(4′-chloro-2,4-dimethylbiphenyl-3-yl)-4-hydroxy-1-oxaspiro[4.5]dec-3-en-2-one] was tested, and the IC50 [1] was 2.7 µM, the IC50 ([2]; MCF7 cells) was 624 nM and the IC50 [3, 5] was 175 nM.

Molecule `Cc1ccc(-c2ccc(F)cc2)cc1C1=C(O)C2(CCC(OCC(F)(F)F)CC2)NC1=O` (stereo not drawn) [1-32, 3-(4′-fluoro-4-methylbiphenyl-3-yl)-4-hydroxy-8-(2,2,2-trifluoroethoxy)-1-azaspiro[4.5]dec-3-en-2-one] has an IC50 [1] of 19 µM, an IC50 [2, 4] of 107 nM and an IC50 [3, 6] of 516 nM.

Molecule `Cc1ccc(-c2ccc(Cl)cc2)cc1C1=C(O)C(C)(C)CNC1=O` [9-2, 3-(4′-chloro-4-methylbiphenyl-3-yl)-4-hydroxy-5,5-dimethyl-5,6-dihydropyridin-2(1H)-one] has an IC50 [1] of over 20 µM, an IC50 ([2]; MCF7 cells) of 1720 nM and an IC50 [3, 6] of 11200 nM.

`Cc1ccc(-c2ccc(Cl)cc2)c(C)c1C1=C(O)C2(CCC(OCC(F)(F)F)CC2)OC1=O` (stereo not drawn) [2-32, 3-(4′-chloro-2,4-dimethylbiphenyl-3-yl)-4-hydroxy-8-(2,2,2-trifluoroethoxy)-1-oxaspiro[4.5]dec-3-en-2-one] was tested, and the IC50 [1] was 2.82 µM, the IC50 ([2]; MCF7 cells) was 112 nM and the IC50 [3] was 339 nM.

Work on `COC1CCC2(CC1)OC(=O)C(c1cc(-c3ccc(Cl)cc3)c(C)cc1C)=C2O` (stereo not drawn) [2-44, 3-(4′-chloro-4,6-dimethylbiphenyl-3-yl)-4-hydroxy-8-methoxy-1-oxaspiro[4.5]dec-3-en-2-one] yielded an IC50 [1] of 0.244 µM, an IC50 ([2]; MCF7 cells) of 121 nM and an IC50 [3] of 220 nM.

For `Cc1ccc(-c2ccc(Cl)cc2)cc1C1=C(O)C2CSCCN2C1=O` (stereo not drawn) [1-21, 7-(4′-chloro-4-methylbiphenyl-3-yl)-8-hydroxy-1,3,4,8a-tetrahydro-6H-pyrrolo[2,1-c][1,4]thiazin-6-one], the IC50 [1] was 10.3 µM, the IC50 [2, 4] was 392 nM and the IC50 [3] was 630 nM.

Molecule `Cc1ccc(-c2ccc(Cl)cc2)cc1C1=C(O)C2(CCCCC2)SC1=O` [3-2, 3-(4′-chloro-4-methylbiphenyl-3-yl)-4-hydroxy-1-thiaspiro[4.5]dec-3-en-2-one] has an IC50 ([2]; MCF7, Table 9a, 96-hour incubation) of 461 nM.

Molecule `COC1CCC2(CC1)NC(=O)C(c1c(C)cc(C)c(-c3ccc(Cl)cc3)c1C)=C2O` (stereo not drawn) [1-9, 3-(4′-chloro-2,4,6-trimethylbiphenyl-3-yl)-4-hydroxy-8-methoxy-1-azaspiro[4.5]dec-3-en-2-one] has an IC50 [1] of 0.276 µM, an IC50 [2, 4] of 287 nM and an IC50 [3] of 11400 nM.

Work on `Cc1cc(C)c(-c2ccc(Cl)cc2)cc1C1=C(O)C2(CCSCC2)OC1=O` [2-42, 3-(4′-chloro-4,6-dimethylbiphenyl-3-yl)-4-hydroxy-1-oxa-8-thiaspiro[4.5]dec-3-en-2-one] yielded an IC50 [1] of 1.56 µM, an IC50 ([2]; MCF7 cells) of 466 nM and an IC50 [3, 5] of 246 nM.

Work on `COCC1CCCC2(C1)NC(=O)C(c1cc(-c3ccc(Cl)cc3)ccc1Cl)=C2O` (stereo not drawn) [1-52, 3-(4,4′-dichlorobiphenyl-3-yl)-4-hydroxy-7-(methoxymethyl)-1-azaspiro[4.5]dec-3-en-2-one] yielded an IC50 [1] of 16 µM, an IC50 [2, 4] of 739 nM and an IC50 [3] of 1790 nM.

For `Cc1ccc(-c2ccc(C)c(C3=C(O)C4(CCCCC4)NC3=O)c2)cc1` [1-13, 3-(4,4′-dimethylbiphenyl-3-yl)-4-hydroxy-1-azaspiro[4.5]dec-3-en-2-one], the IC50 [1] was over 20 µM, the IC50 [2, 4] was 410 nM and the IC50 [3, 6] was 216 nM.

Work on `Cc1ccc(-c2ccc(Cl)cc2)cc1C1=C(O)C2(CCCCCC2)NC1=O` [1-26, 3-(4′-chloro-4-methylbiphenyl-3-yl)-4-hydroxy-1-azaspiro[4.6]undec-3-en-2-one] yielded an IC50 [1] of 3.09 µM, an IC50 [2, 4] of 188 nM and an IC50 [3, 6] of 367 nM.

Work on `Cc1ccc(-c2ccc(Cl)cc2)cc1C1C(=O)N(C)OC(C)(C)C1=O` (stereo not drawn) [11-1, 4-(4′-chloro-4-methylbiphenyl-3-yl)-2,6,6-trimethyl-1,2-oxazinane-3,5-dione] yielded an IC50 ([2]; MCF7 cells) of 3330 nM and an IC50 [3] of 19200 nM.

With `Cc1ccc(-c2ccc(Cl)cc2)c(C)c1C1=C(O)C2(CCC3(CCCO3)CC2)NC1=O` (stereo not drawn) [1-34, 11-(4′-chloro-2,4-dimethylbiphenyl-3-yl)-12-hydroxy-1-oxa-9-azadispiro[4.2.4.2]tetradec-11-en-10-one] the IC50 [1] was 11.4 µM, the IC50 [2, 4] was 112 nM and the IC50 [3, 6] was 297 nM.

In the case of `Cc1cc(C)c(-c2ccc(Cl)cc2)cc1C1=C(O)C2(CCCOC2)NC1=O` (stereo not drawn) [1-8, 3-(4′-chloro-4,6-dimethylbiphenyl-3-yl)-4-hydroxy-7-oxa-1-azaspiro[4.5]dec-3-en-2-one], the IC50 [1] is reported as over 20 µM, the IC50 [2, 4] is reported as 191 nM and the IC50 [3, 6] is reported as 5810 nM.
